Test results published in patent US6130204A (Merck & Co., Inc., priority 1998, dated 2000).

Tests used:
[1] = system: LNCaP prostate tumor cells; test: In vitro cytotoxicity of peptidyl derivatives of doxorubicin (Alamar Blue assay); assay type: cell-based, human; details: FIG. 4, cells incubated 3 days at 37° C.
Experimental: The cytotoxicities of the non-cleaveable oligopeptide-doxorubicin conjugates, prepared as described in Example 4, against a line of cells which is known to be killed by unmodified doxorubicin were assessed with an Alamar Blue assay. Specifically, cell cultures of LNCaP prostate tumor cells, which are a human metastatic prostate adenocarcinoma isolated from a needle biopsy of a lymph node (LNCaP.FGC: American Type Culture Collection, ATCC CRL 1740), or DuPRO cells in 96 well plates were diluted with medium containing various concentrations of a given conjugate (final plate well volume of 200 μl). The cells were incubated for 3 days at 37° C. and then 20 μl of Alamar Blue was added to the assay well. The cells were further incubated and the assay plates were read on a EL-310 ELISA reader at the dual wavelengths of 570 and 600 nm at 4 and 7 hours after addition of Alamar Blue. Relative percentage viability at the various concentration of conjugate tested was then calculated versus control (no conjugate) cultures. Cytotoxicities of unmodified doxorubicin and unmodified oligopeptide were also assessed.

Molecule	cleaved bond (free PSA)	EC50 [1] [nM]
Ac-hArg(Cha)Gln.vertline.SerSerSer(ethylester-Leu)	Gln-Ser	
Ac-AsnLysIleSerTyrGln.vertline.SerSer-amide	Gln-Ser	
Ac-hArgTyrGln.vertline.SerSerSer(Ethylester-Leu)	Gln-Ser	
Ac-AlaAsnLysIleSerTyrGln.vertline.SerSerSerThrLeu	Gln-Ser	
Ac-AlaSerTyrGln.vertline.SerSerThrGlu-amide	Gln-Ser	
Ac-AlaAsnSerTyrGln.vertline.SerSerSerThrGlu-amide	Gln-Ser	
Ac-AlaAsnLysIleSerTyrGln.vertline.SerSerSerThrLeu-amide	Gln-Ser	
COc1cccc2c1C(=O)c1c(O)c3c(c(O)c1C2=O)C[C@@](O)(C(=O)CO)C[C@@H]3O[C@H]1C[C@H](N)[C@H](O)[C@H](C)O1 [doxorubicin]		300
Ac-AlaAsnLysIleSerTyrGln.vertline.SerSerThrGlu-amide	Gln-Ser	
Ac-AlaAsnLysAlaSerTyrGln.vertline.SerAlaSerCys-amide	Gln-Ser	
Ac-hArgTyrGln.vertline.SerSerSer(MeLeu)	Gln-Ser	
Ac-AlaAsnLysIleSerTyrGln.vertline.SerSerLysThrGlu-amide	Gln-Ser	
Ac-AlaAsnLysIleSerTyrGln.vertline.SerAlaSerThrGlu-amide	Gln-Ser	
Ac-AlaAsnLysIleSerTyrGln.vertline.SerThrGlu-amide	Gln-Ser	
Ac-AlaAspLysAlaLysTyrGln.vertline.SerSer(Cha)-NHNH2	Gln-Ser	
Ac-AlaSerTyrGln.vertline.SerSerSerThrGlu-amide	Gln-Ser	
Ac-AlaAsnLysAlaSerTyrGln.vertline.SerAlaSerThrGlu-amide	Gln-Ser	
AlaAsnLysIleSerTyrGln.vertline.SerSerSerThrGlu-amide	Gln-Ser	
Ac-SerTyrGln.vertline.SerSerThrGlu-amide	Gln-Ser	

The next lines start with results.

cleaved bond (free PSA)	Molecule	EC50 [1] [nM]
Gln-Ser	Ac-AlaSerTyrGln.vertline.SerSerLeu-amide	
Gln-Ser	Ac-LysIleSerTyrGln.vertline.SerSer-amide	
Gln-Ser	Ac-AlaAsnGluIleSerTyrGln.vertline.SerAlaSerThrGlu-amide	
Tyr-Ser	Ac-AlaAsnLysIleSerTyrTyr.vertline.SerAlaSerThrGlu-amide	
Gln-Ser	Ac-AlaAsnLysIleSerTyrGln.vertline.SerSerGlnThrGlu-amide	
Tyr-Ser	Ac-AlaAsnLysIleSerTyrTyr.vertline.SerSerSerThrGlu-amide	
Gln-Ser	Ac-AlaAsnLysIleSerTyrGln.vertline.SerSerSerThrGlu-amide	
Gln-Ser	Ac-SerTyrGln.vertline.SerSerSerThrGlu-amide	
Gln-Ser	Ac-AlaAsnLysIleSerTyrGln.vertline.SerAlaLysThrGlu-amide	
Gln-Ser	Ac-AlaAsnLysSerTyrGln.vertline.SerSerThrGlu-amide	
